Results from PMC8811960, “A Novel 2-Carbon-Linked Dimeric Artemisinin With Potent Antileukemic Activity and Favorable Pharmacology” (Frontiers in Oncology, 2022).

Legend:
HEL = experiment: alamarBlue growth inhibition, HEL; assay type: cell-based; conditions: Homo sapiens, 48h, mean of 2 independent assays ± SD
Method: (§1) Cytotoxicity was assessed using alamarBlue assays (Life Technologies, Grand Island, NY) following manufacturer’s guidelines. Cell death was verified by Annexin V/7-aminoactinomycin D (7AAD) staining (BioLegend, San Diego, CA) per manufacturer’s guidelines.

MOLM14 = experiment: alamarBlue growth inhibition, MOLM14; assay type: cell-based; conditions: Homo sapiens, MOLM-14; MOLM14, 48h, alamarBlue, mean of 2 independent assays ± SD; read-out: IC50
Method: as §1
In this experiment, provided to show the entire concentration:response range, MOLM14 AML cells were cultured with a range of concentrations of artesunate (AS), ART838, ART631, and ART576 for 48h. Graph indicates growth inhibition relative to vehicle (DMSO)-treated controls by alamarBlue absorbance assays. Data points and error bars represent mean and SD of 3 independent experiments done in triplicate.

10 human AML cell lines = experiment: alamarBlue growth inhibition, panel of 10 human AML cell lines; assay type: cell-based
Method: as §1
Cell lines with adverse risk cytogenetic and molecular features, e.g. MLL rearrangements (ML2, MOLM14, MV4;11, THP1), FLT3-ITD (MOLM14, MV4;11), TP53 mutations (KG1a, ML2, THP1, U937), and NRAS/KRAS mutations (ML2, THP1), were among those exquisitely sensitive to ART631, with IC50s < 50 nM. The K562 cell line was the only exception, as it was resistant to all 3 of these ARTs. Based on this in vitro activity data combined with the drug stability data described below, ART631 was prioritized over ART576 for further in vitro and in vivo antileukemic efficacy experiments here ( Table 2 ).

KG1a = experiment: alamarBlue growth inhibition, KG1a; assay type: cell-based; conditions: Homo sapiens, KG-1a, 48h, mean of 2 independent assays ± SD
Method: as §1

THP1 = experiment: alamarBlue growth inhibition, THP1; assay type: cell-based; conditions: Homo sapiens, THP-1, THP1, 48h, mean of 2 independent assays ± SD
Method: as §1

[1] = Stability in mouse plasma (EDTA); assay type: in vitro ADME; conditions: 10 µM, 37°C, 1h
Method: (§2) The metabolic stability of ART631 was assessed in human and mouse plasma and liver microsomes (LM). For phase I microsomal stability assays, analogs (10 µM in <1% acetonitrile) were incubated in PBS containing liver microsomes, with or without cofactors ([22]). Microsomal controls (without cofactors) were used to determine non-enzymatic degradation. All experiments were incubated at 37°C for 1h and performed in duplicate. Reactions were stopped with acetonitrile and analyzed as described below.
(§3) ART631 was extracted from 25 µL plasma or microsomal solutions with 100 µL acetonitrile containing artemisinin (i.e. the natural product) as internal standard. […] Mobile phase A was ammonium acetate (2mM) containing 0.1% formic acid, and mobile phase B was acetonitrile containing 0.1% formic acid. The gradient started with mobile phase B and was held at 40% for 0.5 minutes with a flow rate of 0.4 mL/min, then increased to 100% over 1.5 minutes and held for 2.0 minutes, and finally returned back to 40% mobile phase B and allowed to equilibrate for 2.0 minutes. An AB Sciex 5500 triple quadrupole mass spectrometer operated in positive electrospray ionization mode was used for the detection of ART631. For stability studies, the ratio of ART631 to the internal standard, artemisinin, was assessed. […]

K562 = experiment: alamarBlue growth inhibition, K562; assay type: cell-based; conditions: Homo sapiens, K562, 48h, mean of 2 independent assays ± SD
Method: as §1

[2] = Phase I microsomal stability, human liver microsomes; assay type: in vitro ADME
Method: as §2
(§4) ART631 was extracted from 25 µL plasma or microsomal solutions with 100 µL acetonitrile containing artemisinin (i.e. the natural product) as internal standard. […] Mobile phase A was ammonium acetate (2mM) containing 0.1% formic acid, and mobile phase B was acetonitrile containing 0.1% formic acid. The gradient started with mobile phase B and was held at 40% for 0.5 minutes with a flow rate of 0.4 mL/min, then increased to 100% over 1.5 minutes and held for 2.0 minutes, and finally returned back to 40% mobile phase B and allowed to equilibrate for 2.0 minutes. An AB Sciex 5500 triple quadrupole mass spectrometer operated in positive electrospray ionization mode was used for the detection of ART631. For stability studies, the ratio of ART631 to the internal standard, artemisinin, was assessed. Calibration curves for ART631 were computed using the ratio of the peak area to that of the internal standard by using a quadratic equation with a 1/x^2 weighting function over the range of 8-1585 nM with dilutions of up to 1:10 (v/v).

U937 = experiment: alamarBlue growth inhibition, U937; assay type: cell-based; conditions: Homo sapiens, U-937, U937, 48h, mean of 2 independent assays ± SD
Method: as §1

HL60 = experiment: alamarBlue growth inhibition, HL60; assay type: cell-based; conditions: Homo sapiens, HL-60, HL60, 48h, mean of 2 independent assays ± SD
Method: as §1

[3] = Stability in human plasma (EDTA); assay type: in vitro ADME; conditions: 10 µM, 37°C, 1h
Method: as §2, §3

ML2 = experiment: alamarBlue growth inhibition, ML2; assay type: cell-based; conditions: Homo sapiens, ML-2, ML2, 48h, mean of 2 independent assays ± SD
Method: as §1

[4] = Phase I microsomal stability, mouse liver microsomes; assay type: in vitro ADME
Method: as §2, §4

MV4;11 = experiment: alamarBlue growth inhibition, MV4;11; assay type: cell-based; conditions: Homo sapiens, MV4;11, 48h, mean of 2 independent assays ± SD
Method: as §1

Stability in plasma = assay type: in vitro ADME, human and mouse; conditions: species not given
Method: as §2
We compared the in vitro stability of ART576 and ART631 ( Table 3 ). ART576 was stable in plasma (<10% degradation), but unstable with degradation of >70% in human liver microsomes with co-factors and >90% in mouse liver microsomes with co-factors ( Table 3 ).

TF1 = experiment: alamarBlue growth inhibition, TF1; assay type: cell-based; conditions: Homo sapiens, TF-1, TF1, 48h, mean of 2 independent assays ± SD
Method: as §1

DDIT3 = experiment: qRT-PCR for DDIT3 mRNA; assay type: cell-based, human; conditions: MOLM14, 18h, ART631 200 nM, ART838 200 nM, AS 10 uM, similar results in MV4;11 and ML2
Method: Cells were pre-treated with […] ROS detection reagent 5-(and 6-)-chloromethyl-2’,7’-dichlorodihydrofluorescein diacetate (CM-H2DCFDA, Life Technologies) for 30 min, followed by the iron chelator deferoxamine mesylate (DFO; 11 mM) for 60 min. Cells were then treated with ART631 (200 nM) or DMSO control for 18h, with subsequent analysis by flow cytometry. Western blotting and quantitative reverse transcription PCR (qRT-PCR) to assess for molecular markers of ROS-mediated apoptosis were performed as previously described ([20]).
Figure 4 ART631 elevated ROS and CHOP levels and reduced MCL1 expression in MOLM14 AML cells. (A) MOLM14 AML cells were pre-treated with ROS detection reagent CM-H2DCFDA ([…]) for 30 min, pre-treated with deferoxamine mesylate (DFO; 11 mM) for 60 min, and then treated with ART631 (200 nM) or DMSO control for 18h. They were then analyzed by flow cytometry. Graph represents %CM-H2DCFDA fluorescence compared to vehicle (DMSO) control treated cells. Error bars represent SD from 3 independent experiments. (B) MOLM14 AML cells were treated for 18h with vehicle, AS (10 uM), ART838 (200 nM), ART631 (200 nM), cytarabine (AraC; 150 nM), or SOR (5 uM). Protein was isolated and western blotted for MCL1, BCL2, CHOP, and β-actin. (C) MOLM14 cells were treated as in (B) for 18h, total RNA isolated, cDNA synthesized, and SYBR Green qRT-PCR performed in triplicates. Ct values were normalized to housekeeping gene GAPDH and fold change shown relative to vehicle (DMSO) control. Error bars represent SD from 3 independent experiments done in triplicate.

[5] = tested on: MOLM14, MV4;11, and HL60 human AML cells; experiment: Annexin V/7-AAD cell viability and apoptosis; assay type: cell-based; conditions: 30-45 min pre-incubation with 10 nM QVD
Method: as §1
MOLM14, MV4;11, and HL60 human AML cells were assessed for cell viability and caspase-dependent apoptosis following treatment with ART631 (200 nM), VEN (50 nM), SOR (5 µM), and combinations thereof.
Figure 3 ART631-based combination treatments reduced cell viability in AML cell lines. MOLM14, MV4;11, and HL60 AML cells were each treated for 18h with vehicle (DMSO) control, ART631 alone (200 nM), VEN alone (50 nM), SOR alone (5 uM), and 2- and 3-drug combinations, all with and without a 30-45 min pre-incubation with 10 nM pan-caspase inhibitor QVD-OPh (QVD). Treated cells were stained with 2.5 ug/mL 7-aminoactinomycin D (7-AAD) and 0.5 ug/mL allophycocyanin (APC)-conjugated Annexin V in Annexin V binding buffer and analyzed by flow cytometry. Graphs indicate % cell viability based on Annexin V/7-AAD dual staining. For MOLM14 and MV4;11, means and SDs shown are based on 3 independent experiments. HL60 cell data is from one experiment done in triplicate.

[6] = 10 µM, 37°C, 1h, with cofactors
[7] = 10 µM, 37°C, 1h, without cofactors
[8] = NADPH-dependent phase I metabolism

C[C@@H]1CCC2[C@@H](C)[C@@H](C(=O)C[C@H]3O[C@@H]4O[C@@]5(C)CCC6[C@H](C)CCC([C@H]3C)[C@]64OO5)O[C@@H]3O[C@@]4(C)CCC1[C@@]23OO4 (stereo partly drawn) [ART576]
IC50 (HEL): 80 ± 19 nM | IC50 (MOLM14): 43 ± 7 nM | number of human AML cell lines whose growth was inhibited (10 human AML cell lines; of 10 human AML cell lines tested): 8 | IC50 (10 human AML cell lines; range over the inhibited cell lines of 10 human AML cell lines, read-out: IC50 range): 23 to 105 nM | IC50 (KG1a): 64 ± 4 nM | IC50 (THP1): > 1000 nM | percentage remaining, Plasma (EDTA) Mouse [1]: 101% | IC50 (K562): > 1000 nM | percentage remaining, Phase I Metabolism HLM NADPH(+) [2, 6]: 26% | percentage remaining, Phase I Metabolism HLM NADPH(-) [2, 7]: 89% | degradation in human liver microsomes with co-factors [2, 8]: > 70% | IC50 (U937): 23 ± 1 nM | IC50 (HL60): 72 ± 18 nM | percentage remaining, Plasma (EDTA) Human [3]: 91% | IC50 (ML2): 105 ± 12 nM | percentage remaining, Phase I Metabolism MLM NADPH(+) [4, 6]: 7% | percentage remaining, Phase I Metabolism MLM NADPH(-) [4, 7]: 96% | degradation in mouse liver microsomes with co-factors [4, 8]: > 90% | IC50 (MV4;11): 38 ± 10 nM | degradation in plasma (Stability in plasma): < 10% | IC50 (TF1): 49 ± 12 nM

C[C@H]1[C@H](OC(=O)CCC(=O)O)O[C@@H]2O[C@@]3(C)CC[C@H]4[C@H](C)CC[C@@H]1[C@@]24OO3 [AS, artesunate, reference compound]
IC50 (HEL): 1110 ± 93 nM | IC50 (MOLM14): 890 ± 99 nM | IC50 (KG1a): 2600 ± 458 nM | IC50 (THP1): > 10000 nM | IC50 (K562): > 10000 nM | IC50 (U937): 521 ± 96 nM | IC50 (HL60): 1060 ± 83 nM | IC50 (ML2): 1580 ± 94 nM | DDIT3 mRNA (DDIT3): increased | IC50 (MV4;11): 610 ± 30 nM | IC50 (TF1): 1720 ± 302 nM

CC(C)[C@H](NC(=O)c1ccc2ccccc2n1)C(=O)N[C@@H](CC(=O)O)C(=O)COc1c(F)cccc1F [QVD-OPh]
effect of pre-treatment on apoptosis and cell death for all drugs and combinations [5]: almost fully inhibited
